In BindingDB's records for doi:10.1016/0960-894X(96)00018-2 (1996) one finds IC50 data, which are given here for two compounds.

For the assay, the target named is T1, Prostatic acid phosphatase (Homo sapiens, UniProt P15309).
T1 sequence (P15309 whole entry): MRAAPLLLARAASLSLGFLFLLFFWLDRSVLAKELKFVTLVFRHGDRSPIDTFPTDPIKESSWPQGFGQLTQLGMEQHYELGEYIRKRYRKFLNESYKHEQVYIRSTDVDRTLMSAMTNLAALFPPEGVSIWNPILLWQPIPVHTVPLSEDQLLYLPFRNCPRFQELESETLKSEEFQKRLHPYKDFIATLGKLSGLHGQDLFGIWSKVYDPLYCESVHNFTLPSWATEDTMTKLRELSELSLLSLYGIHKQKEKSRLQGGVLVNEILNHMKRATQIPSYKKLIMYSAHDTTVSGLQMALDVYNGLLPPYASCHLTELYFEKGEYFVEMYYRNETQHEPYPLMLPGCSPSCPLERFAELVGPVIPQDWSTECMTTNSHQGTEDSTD
The assay can be described thus: ChEBML_158626. As to the method:
Inhibition of human prostatic acid phosphatase was determined as inhibition of the hydrolysis of tyrosine phosphate

`OP(O)(O)=c1c2ccccc2ccc2ccccc12` [(5H-Dibenzo[a,d]cyclohepten-5-yl)-phosphonic acid]: the IC50 (in general, the concentration needed to halve the response being measured) was more than 100 µM. In turn, `OP(O)(O)=c1c2ccccc2sc2ccccc12` [(9H-Thioxanthen-9-yl)-phosphonic acid] returned a half-maximal inhibitory concentration (IC50) of more than 100 µM.
